Data: patent US7101872B2, “Farnesyl dibenzodiazepinone, and processes for its production” (Ecopia BioSciences, Inc., priority 2003, dated 2006)

Assays:
Assay type in all cases: cell-based
OVCAR-8 = assay: NCI panel SRB growth inhibition; conditions: Homo sapiens, OVCAR-8, Ovarian, 48 h
Procedure: (§1) The operation of this unique screen utilizes […] different human tumor cell lines, representing leukemia, melanoma and cancers of the lung, colon, brain, ovary, breast, prostate, and kidney.
(§2) Culture conditions and plating: The human tumor cell lines of the cancer-screening panel were grown in RPMI 1640 medium containing 5% fetal bovine serum and 2 mM L-glutamine. For a typical screening experiment, cells were inoculated into 96 well microtiter plates in 100 μL at plating densities ranging from 5,000 to 40,000 cells/well depending on the doubling time of individual cell lines (Table 5). After cell inoculation, the microtiter plates were incubated at 37° C., 5% CO2, 95% air and 100% relative humidity for 24 h prior to addition of experimental drugs. After 24 h, two plates of each cell line were fixed in situ with TCA, to represent a measurement of the cell population for each cell line at the time of drug addition (Tz). Evaluation of inhibitory activity on cell proliferation: ECO-04601 was provided as a lyophilized powder with an estimated purity of 90+%. The compound was stored at −20° C. until day of use. ECO-04601 was solubilized in dimethyl sulfoxide at 400-fold the desired final maximum test concentration. At the time of drug addition, an aliquot of frozen concentrate was thawed and diluted to twice the desired final maximum test concentration with complete medium containing 50 μg/mL gentamicin. Additional four, 10-fold or Y2 log serial dilutions were made to provide a total of five drug concentrations plus control. Aliquots of 100 μl of these different drug dilutions were added to the appropriate microtiter wells already containing 100 μl of medium, resulting in the required final drug concentrations (8.0×10^−5 M to 8.0×10^−9 M).
(§3) Following drug addition, the plates were incubated for an additional 48 h at 37° C., 5% CO2, 95% air, and 100% relative humidity. For adherent cells, the assay was terminated by the addition of cold TCA. Cells were fixed in situ by the gentle addition of 50 μl of cold 50% (w/v) TCA (final concentration, 10% TCA) and incubated for 60 minutes at 4° C. Supernatants were discarded, and the plates were washed five times with tap water and air-dried. Sulforhodamine B (SRB) solution (100 μl) at 0.4% (w/v) in 1% acetic acid was added to each well, and plates were incubated for 10 minutes at room temperature. After staining, unbound dye was removed by washing five times with 1% acetic acid and the plates were air-dried. Bound stain was subsequently solubilized with 10 mM trizma base, and the absorbance was read on an automated plate reader at a wavelength of 515 nm. For suspension cells, the methodology was the same except that the assay was terminated by fixing settled cells at the bottom of the wells by gently adding 50 μl of 80% TCA (final concentration, 16% TCA).
(§4) The growth inhibitory activity of ECO-04601 was measured by NCI utilizing the GI50 value, rather than the classical IC50 value.

A549/ATCC = assay: NCI panel SRB growth inhibition; conditions: Homo sapiens, Non-Small Cell Lung, 48 h
Procedure: as §1, §2, §3, §4

NCI-H23 = assay: NCI panel SRB growth inhibition; conditions: Homo sapiens, NCI-H23, Non-Small Cell Lung, 48 h
Procedure: as §1, §2, §3, §4

K-562 = assay: NCI panel SRB growth inhibition; conditions: Homo sapiens, K562, K-562, Leukemia, 48 h
Procedure: as §1, §2, §3, §4

MDA-MB-435 = assay: NCI panel SRB growth inhibition; conditions: Homo sapiens, MDA-MB-435, Breast, 48 h
Procedure: as §1, §2, §3, §4

UACC-62 = assay: NCI panel SRB growth inhibition; conditions: Homo sapiens, UACC-62, Melanoma, 48 h
Procedure: as §1, §2, §3, §4

HCT-116 = assay: NCI panel SRB growth inhibition; conditions: Homo sapiens, HCT-116, Colon, 48 h
Procedure: as §1, §2, §3, §4

UO-31 = assay: NCI panel SRB growth inhibition; conditions: Homo sapiens, UO-31, Renal, 48 h
Procedure: as §1, §2, §3, §4

SF-295 = assay: NCI panel SRB growth inhibition; conditions: Homo sapiens, SF-295, CNS, 48 h
Procedure: as §1, §2, §3, §4

EKVX = assay: NCI panel SRB growth inhibition; conditions: Homo sapiens, Non-Small Cell Lung, 48 h
Procedure: as §1, §2, §3, §4

CAKI-1 = assay: NCI panel SRB growth inhibition; conditions: Homo sapiens, CAKI-1, Renal, 48 h
Procedure: as §1, §2, §3, §4

COLO 205 = assay: NCI panel SRB growth inhibition; conditions: Homo sapiens, COLO 205, Colon, 48 h
Procedure: as §1, §2, §3, §4

HOP-62 = assay: NCI panel SRB growth inhibition; conditions: Homo sapiens, HOP-62, Non-Small Cell Lung, 48 h
Procedure: as §1, §2, §3, §4

LOX IMVI = assay: NCI panel SRB growth inhibition; conditions: Homo sapiens, Melanoma, 48 h
Procedure: as §1, §2, §3, §4

IGR-OV1 = assay: NCI panel SRB growth inhibition; conditions: Homo sapiens, IGROV-1, IGR-OV1, Ovarian, 48 h
Procedure: as §1, §2, §3, §4

SK-MEL-5 = assay: NCI panel SRB growth inhibition; conditions: Homo sapiens, SK-MEL-5, Melanoma, 48 h
Procedure: as §1, §2, §3, §4

NCI-H522 = assay: NCI panel SRB growth inhibition; conditions: Homo sapiens, NCI-H522, Non-Small Cell Lung, 48 h
Procedure: as §1, §2, §3, §4

MDA-MB-231/ATCC = assay: NCI panel SRB growth inhibition; conditions: Homo sapiens, Breast, 48 h
Procedure: as §1, §2, §3, §4

UACC-257 = assay: NCI panel SRB growth inhibition; conditions: Homo sapiens, UACC-257, Melanoma, 48 h
Procedure: as §1, §2, §3, §4

SN12C = assay: NCI panel SRB growth inhibition; conditions: Homo sapiens, Renal, 48 h
Procedure: as §1, §2, §3, §4

MCF7 = assay: NCI panel SRB growth inhibition; conditions: Homo sapiens, MCF7, Breast, 48 h
Procedure: as §1, §2, §3, §4

CCRF-CEM = assay: NCI panel SRB growth inhibition; conditions: Homo sapiens, Leukemia, 48 h
Procedure: as §1, §2, §3, §4

DU-145 = assay: NCI panel SRB growth inhibition; conditions: Homo sapiens, DU-145, Prostate, 48 h
Procedure: as §1, §2, §3, §4

human 5-LO = target: T1, human 5-LO (Homo sapiens, UniProt P09917); assay: Human 5-lipoxygenase activity in stimulated PMNs (Leukotriene B4 EIA)
T1 construct: Human peripheral blood mononuclear cells (PMNs) were isolated through a Ficoll-Paque density gradient; endogenous in cells; host or cells: human peripheral blood cells (PMNs) isolated by Ficoll-Paque, stimulated with A23187
T1 sequence (P09917 whole entry): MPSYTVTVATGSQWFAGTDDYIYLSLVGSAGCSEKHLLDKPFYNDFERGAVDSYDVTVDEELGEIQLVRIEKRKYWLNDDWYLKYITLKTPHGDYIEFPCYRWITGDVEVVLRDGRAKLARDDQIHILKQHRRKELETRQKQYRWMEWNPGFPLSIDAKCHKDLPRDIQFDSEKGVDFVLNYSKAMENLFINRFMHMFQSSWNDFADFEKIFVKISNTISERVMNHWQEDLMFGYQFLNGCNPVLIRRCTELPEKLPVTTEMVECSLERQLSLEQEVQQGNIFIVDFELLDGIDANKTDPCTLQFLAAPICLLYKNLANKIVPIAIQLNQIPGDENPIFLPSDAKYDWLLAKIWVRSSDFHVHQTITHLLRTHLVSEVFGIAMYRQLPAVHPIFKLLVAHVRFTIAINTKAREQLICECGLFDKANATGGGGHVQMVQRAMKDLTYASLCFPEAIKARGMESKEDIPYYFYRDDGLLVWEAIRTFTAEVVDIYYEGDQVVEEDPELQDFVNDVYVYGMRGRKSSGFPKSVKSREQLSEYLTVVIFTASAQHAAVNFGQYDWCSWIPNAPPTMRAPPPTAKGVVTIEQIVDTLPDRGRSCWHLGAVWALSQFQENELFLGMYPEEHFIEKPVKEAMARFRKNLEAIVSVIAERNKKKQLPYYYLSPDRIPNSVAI
Procedure: Experimental Design: Human peripheral blood mononuclear cells (PMNs) were isolated through a Ficoll-Paque density gradient. PMNs were stimulated by addition A23187 (30 μM final concentration). […] Following incubation, samples were neutralized with NaOH and centrifuged. Leukotriene B4 content was measured in the supernatant using an Enzyme Immunosorbant Assay (EIA) assay.

For `CC(C)=CCC/C(C)=C/CC/C(C)=C/CN1C(=O)c2cccc(O)c2Nc2c(O)cc(O)cc21` [ECO-04601, 10-farnesyl-4,6,8-trihydroxy-dibenzodiazepin-11-one], the GI50 (OVCAR-8) was 2.65 µM, the GI50 (A549/ATCC) was 9.1 µM and the GI50 (NCI-H23) was 2.02 µM. The GI50 (K-562) was 1.43 µM, the GI50 (MDA-MB-435) was 15.3 µM and the GI50 (UACC-62) was 1.55 µM. For the same compound, the GI50 (HCT-116) was 2.92 µM, the GI50 (UO-31) was 19.7 µM and the GI50 (SF-295) was 12.7 µM. The GI50 (EKVX) was 0.23 µM, the GI50 (CAKI-1) was 15.2 µM and the GI50 (COLO 205) was 12.7 µM. For the same compound, the GI50 (HOP-62) was 8.29 µM, the GI50 (LOX IMVI) was 4.53 µM and the GI50 (IGR-OV1) was 3.11 µM. For the same compound, the GI50 (SK-MEL-5) was 7.8 µM, the GI50 (NCI-H522) was 3.44 µM and the GI50 (MDA-MB-231/ATCC) was 2.72 µM. For the same compound, the GI50 (UACC-257) was 2.31 µM, the GI50 (SN12C) was 3.85 µM and the GI50 (MCF7) was 10.1 µM. For the same compound, the GI50 (CCRF-CEM) was 1.08 µM, the GI50 (DU-145) was 3.56 µM and the IC50 (human 5-LO; A23187-stimulated human PMNs, 15 minutes at 37° C., Leukotriene B4 EIA, read-out: apparent IC50, activity of human 5-LO) was 0.93 µM. The EC50 (human 5-LO; FIG. 8 legend) was 0.93 µM.
